In patent publication US6255337A, “Anti-first-pass effect compounds and citrus extract” (Bioavailability Systems, L.L.C., priority 1999, dated 2001):
“Also recorded” adds a separate entry of the source. Like-named read-outs stand apart in the source and are kept apart here.

What was measured:
[1] = test system: human cytochrome P450; assay: Protocol C: Assessment of human cytochrome P450-mediated biotransformation (terfenadine, human hepatic S9); type: in vitro ADME
Description: The process of preparing incubation mixtures begins by mixing 10 uL of ethanol or an ethanolic solution containing an inhibitor with 100 uL of 100 mg/mL bovine serum albumin (Sigma) dissolved in reaction buffer at room temperature. Reaction buffer is composed of 0.10 M sodium phosphate, 1.0 mM ethylenediaminetetraacetic acid, and 5.0 mM magnesium chloride, pH 7.4 (all reagents: Fisher Scientific). Inhibitory chemicals used were ketoconazole (Research Diagnostics, Inc.), miconazole, bergapten, xanthotoxin (previous three from Sigma), bergamotin, imperatorin, isopimpinellin, psoralen, angelicin (previous five from Indofine Chemical Company, Inc.), and fractions or precipitates resulting from Protocols A and B above. When possible, final inhibitor concentrations were expressed in molarity by calculation from the weighed material or by interpolation from HPLC calibration curves prepared with reference materials; otherwise, concentrations are expressed as weight per volume. Reaction tubes are placed on ice in preparation for the manipulations that follow. Sufficient reaction buffer is added so that the final volume of each tube will be 500 uL, 5 uL of a 100-fold concentrate for generating reduced nicotinamide adenine dinucleotide phosphate is added (such that completed reaction mixture contains 1.0 mM nicotinamide adenine dinucleotide phosphate, 1 U/mL glucose-6-phosphate dehvdrogenase, and 10 mM glucose-6-phosphate; all from Sigma), and then human hiepatic S9 (Anatomic Gift Foundation) is thawed and added in sufficient amounts to cause readily detectable amounts of metabolites to be formed in control reactions (amount necessary varies among individuals, but 10 uL is typical).
The samples prepared above are readied for HPLC assessment using the protocol that follows. Each tube is vortex mixed and centrifuged for 10 min at setting 35, the resulting supernatant is transferred to a clean tube, and the liquid is evaporated using a Speed Vac apparatus. The residue in each tube is first dissolved in 40 uL 1:1 acetonitrile:water, 2.5 mL of acetonitrile is added, and the centrifuge-transfer-evaporate step just described is repeated.
The dry residue resulting from the above-described experiments and sample preparation protocol may be analyzed for terfienadine metabolites using the HPLC method described below and may also be used to quantitate the inhibitory chemicals that were added to the reaction (see Protocol B). Linear gradients are used for elution and are formed by mixing mobile phase A composed of water with mobile phase B composed of 0.025% (v/v) formic acid in acetonitrile (instrument: Hewlett Packard). The elution time, in minutes, the percentage of mobile phase B present in the mixed mobile phase, and the flow rate (mL/min) are as follows: 0, 10, 0.10; 2, 10, 0.10; 3.5, 10, 0.20; 4, 10, 0.25; 5, 10, 0.25; 30, 55, 0.25; 32, 98, 0.25; 33, 98, 0.40; 39.8, 98, 0.40; 40, 98, 0.25; 45, 10, 0.25; 45.25, 10, 0.20; 50, 10, 0.20; 50.25, 10, 0.10. The chromatographic column has dimensions of 150 mm length×2.1 mm internal diameter. is packed with a proprietary material (Prism, Keystone Scientific, Inc.), is protected with a 2 mm internal diameter column containing the same material and with a PTFE filter, and is maintained at 35+/-0.2 C. The dry sample residue is mixed with 60 uL of 1:1 acetonitrile:water followed by 40 uL water just prior to each 50.25 min run cycle. The column eluate from each 10 uL injection is monitored for fluorescence with excitation at 228 nm, emission at 291 nm, and bandpass filtration at 280 nm.

[2] = in words; cited from earlier work
[3] = test system: first-pass effect; details: orally administered drugs; in words; cited from earlier work
[4] = test system: first-pass effect of cyclosporin; details: heart transplant patients, cyclosporin co-administered with ketoconazole; cited from earlier work
[5] = test system: cytochrome P450; details: given to humans in large doses; in words; cited from earlier work
[6] = with inhibitors commonly given to humans; in words; cited from earlier work

For `O=c1ccc2ccc3occc3c2o1` [angelicin], the “first-pass effect inhibition (determined herein)” value (shortened to “first-pass effect inhibition”) ([1]; in words) was “ineffective”.

With `CC(C)=CCC/C(C)=C/COc1c2ccoc2cc2oc(=O)ccc12` [bergamottin] the “first-pass effect inhibition” value [1] was “ineffective”.

For `COc1c2ccoc2cc2oc(=O)ccc12` [bergapten, 5-methoxypsoralen], the toxicity / phototoxicity [2] is listed as “toxic, in particular, phototoxic”.

In the case of `CC[C@H]1OC(=O)[C@H](C)[C@@H](O[C@H]2C[C@@](C)(OC)[C@@H](O)[C@H](C)O2)[C@H](C)[C@@H](O[C@@H]2O[C@H](C)C[C@H](N(C)C)[C@H]2O)[C@](C)(O)C[C@@H](C)C(=O)[C@H](C)[C@@H](O)[C@]1(C)O` [erythromycin], the “inhibition of the first-pass effect” value [3] is listed as “identified as inhibitors of the first-pass effect”.

In the case of `OC(Cn1cncn1)(Cn1cncn1)c1ccc(F)cc1F` [fluconazole], the “inhibition of the first-pass effect” value [3] is given as “identified as inhibitors of the first-pass effect”.

For `CC(C)=CCOc1c2occc2cc2ccc(=O)oc12` [imperatorin], the “first-pass activity according to Protocol C” value ([1]; 2000 nM, in words) was “non-first-pass inhibiting” and the “first-pass effect inhibition” value ([1]; in words) was “ineffective”.

With `COc1c2ccoc2c(OC)c2oc(=O)ccc12` [isopimpinellin] the “first-pass effect inhibition” value ([1]; in words) was “ineffective”.

In the case of `CCC(C)n1ncn(-c2ccc(N3CCN(c4ccc(OCC5COC(Cn6cncn6)(c6ccc(Cl)cc6Cl)O5)cc4)CC3)cc2)c1=O` (stereo not shown) [itraconazole], the “inhibition of the first-pass effect” value [3] is listed as “identified as inhibitors of the first-pass effect”.

For `CC(=O)N1CCN(c2ccc(OCC3COC(Cn4ccnc4)(c4ccc(Cl)cc4Cl)O3)cc2)CC1` (stereo not shown) [ketoconazole], the “inhibition of the first-pass effect” value [3] is given as “inhibition of the first-pass effect of cyclosporin; also recorded: identified as inhibitors of the first-pass effect” and the “reduction of the dose of cyclosporin required” value [4] is given as “approximately 85%”.

In the case of `Clc1ccc(COC(Cn2ccnc2)c2ccc(Cl)cc2Cl)c(Cl)c1` (stereo not shown) [miconazole], the “inhibition of the first-pass effect” value [3] is listed as “identified as inhibitors of the first-pass effect”.

In the case of `O=c1ccc2cc3ccoc3cc2o1` [psoralen], the toxicity / phototoxicity [2] is given as “toxic, in particular, phototoxic”, the “first-pass effect inhibition” value ([1]; in words) is given as “ineffective” and the “inhibition of cytochrome P450” value [5] is given as “do inhibit cvtochrome P450”.

For `CC(C)c1nc(CN(C)C(=O)N[C@H](C(=O)N[C@@H](Cc2ccccc2)C[C@H](O)[C@H](Cc2ccccc2)NC(=O)OCc2cncs2)C(C)C)cs1` [ritonavir], the “inhibition of the first-pass effect” value [3] is listed as “identified as inhibitors of the first-pass effect”.

For `Cc1nnc2n1-c1ccc(Cl)cc1C(c1ccccc1Cl)=NC2` [triazolam], the “increase of bioavailability by inhibitors” value [6] is given as “bioavailability is increased by inhibitors”.

For `CO[C@H]1C[C@H](O[C@H]2[C@H](C)[C@@H](O[C@@H]3O[C@H](C)C[C@H](N(C)C)[C@H]3OC(C)=O)[C@@H](C)C[C@@]3(CO3)C(=O)[C@H](C)[C@@H](OC(C)=O)[C@@H](C)[C@@H](C)OC(=O)[C@@H]2C)O[C@@H](C)[C@@H]1OC(C)=O` [troleandomycin], the “inhibition of the first-pass effect” value [3] is given as “identified as inhibitors of the first-pass effect”.

For `COc1c2occc2cc2ccc(=O)oc12` [xanthotoxin, 8-methoxypsoralen], the toxicity / phototoxicity [2] is given as “toxic, in particular, phototoxic”.
